Columns and labels:
D(3) dopamine receptor [1] = biological target: T1, D(3) dopamine receptor (Homo sapiens, UniProt P35462); assay: Displacement of [125I]iodosulpiride from human Dopamine receptor D3 expressed in CHO cells; assay type: cell-based
D(2) dopamine receptor [2] = biological target: T2, D(2) dopamine receptor (Homo sapiens, UniProt P14416); assay: Displacement [125I]iodosulpiride from human Dopamine receptor D2 expressed in CHO cells; assay type: cell-based
[3] = Pharmacokinetic property (CLb)of the compound was determined in rat; assay type: ADME, organism-based; settings: blood, read-out: CLb
D(3) dopamine receptor [4] = biological target: T1, D(3) dopamine receptor; assay: In vitro functional antagonist effect by its affinity to bind to Dopamine receptor D3
[5] = Pharmacokinetic property (blood clearance) in rat; assay type: ADME, organism-based
[6] = Half life in rat; assay type: ADME, organism-based; settings: in vivo
D(2) dopamine receptor [7] = biological target: T2, D(2) dopamine receptor; assay: In vitro functional antagonist effect by its affinity to bind to Dopamine receptor D2

T1 sequence (P35462 whole entry): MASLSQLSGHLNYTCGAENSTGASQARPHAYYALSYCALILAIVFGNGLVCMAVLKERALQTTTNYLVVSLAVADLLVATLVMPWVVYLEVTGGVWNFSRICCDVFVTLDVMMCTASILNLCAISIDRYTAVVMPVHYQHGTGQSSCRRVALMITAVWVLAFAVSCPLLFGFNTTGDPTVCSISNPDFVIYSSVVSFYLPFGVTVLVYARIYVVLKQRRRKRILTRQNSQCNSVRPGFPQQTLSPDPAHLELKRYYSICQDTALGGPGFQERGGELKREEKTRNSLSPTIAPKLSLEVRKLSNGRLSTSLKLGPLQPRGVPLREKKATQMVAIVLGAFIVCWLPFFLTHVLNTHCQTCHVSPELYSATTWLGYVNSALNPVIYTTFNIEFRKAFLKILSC
T2 sequence (P14416 whole entry): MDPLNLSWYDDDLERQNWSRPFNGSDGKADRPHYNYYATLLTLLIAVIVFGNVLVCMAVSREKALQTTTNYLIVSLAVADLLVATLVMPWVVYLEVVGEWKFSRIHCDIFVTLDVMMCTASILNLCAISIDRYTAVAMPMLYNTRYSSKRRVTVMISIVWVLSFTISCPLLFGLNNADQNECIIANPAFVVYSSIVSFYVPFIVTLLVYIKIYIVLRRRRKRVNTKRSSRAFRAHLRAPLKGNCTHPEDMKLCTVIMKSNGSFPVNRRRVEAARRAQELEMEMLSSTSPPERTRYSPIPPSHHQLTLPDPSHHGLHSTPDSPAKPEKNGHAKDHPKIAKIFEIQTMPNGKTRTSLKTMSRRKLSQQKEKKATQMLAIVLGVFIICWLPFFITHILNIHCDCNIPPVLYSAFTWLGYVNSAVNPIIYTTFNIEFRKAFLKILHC

SMILES	Ki (D(3) dopamine receptor [1]) [nM]	Ki (D(2) dopamine receptor [2]) [nM]	also measured
COc1ccc(/C=C/C(=O)NCCCCN2CCc3ccc(OS(=O)(=O)C(F)(F)F)cc3C2)cc1	3.98	316	
Cc1cc(C(=O)NCCCCN2CCc3ccc(OS(=O)(=O)C(F)(F)F)cc3C2)ccc1-c1ccccc1	50.1	1000	
CN(C)c1ccc(/C=C/C(=O)NCCCCN2CCc3ccc(OS(=O)(=O)C(F)(F)F)cc3C2)cc1	3.98	501	
O=C(/C=C/c1ccccc1)NCCCCN1CCc2ccc(OS(=O)(=O)C(F)(F)F)cc2C1	5.01	316	
O=C(/C=C/c1ccc2ccccc2c1)NCCCCN1CCc2ccc(OS(=O)(=O)C(F)(F)F)cc2C1	5.01	1000	
CC(=O)c1ccc(/C=C/C(=O)NCCCCN2CCc3ccc(OS(=O)(=O)C(F)(F)F)cc3C2)cc1	3.98	251	
CNC(=O)c1ccc(-c2ccc(C(=O)NCCCCN3CCc4ccc(OS(=O)(=O)C(F)(F)F)cc4C3)cc2)cc1	2.51	100	
O=C(/C=C/c1ccc2[nH]ccc2c1)NCCCCN1CCc2ccc(OS(=O)(=O)C(F)(F)F)cc2C1	2	200	
O=C(/C=C/c1ccc2nc(O)ccc2c1)NCCCCN1CCc2ccc(OS(=O)(=O)C(F)(F)F)cc2C1	2.51	158	
CC(=O)c1cccc(/C=C/C(=O)NCCCCN2CCc3ccc(OS(=O)(=O)C(F)(F)F)cc3C2)c1	3.98	398	
O=C(NCCCCN1CCc2ccc(OS(=O)(=O)C(F)(F)F)cc2C1)c1ccc(-c2ccccc2)cc1	7.94	501	
O=C(NCCCCN1CCc2ccccc2C1)c1ccc(-c2ccccc2)cc1	25.1	501	clearance [3]: 20 mL/min/kg
COc1cccc(/C=C/C(=O)NCCCCN2CCc3ccc(OS(=O)(=O)C(F)(F)F)cc3C2)c1	3.16	316	
O=C(NCCCCN1CCc2ccc(OS(=O)(=O)C(F)(F)F)cc2C1)c1cccc(-c2ccccc2)c1	126	501	
O=C(NCCCCN1CCc2ccc(OS(=O)(=O)C(F)(F)F)cc2C1)c1ccc(-c2ccc(N3CCCC3=O)cc2)cc1	2.51	126	
O=C(/C=C/c1ccc2ccccc2n1)NCCCCN1CCc2ccc(OS(=O)(=O)C(F)(F)F)cc2C1	3.98	398	
O=C(/C=C\c1ccccc1)NCCCCN1CCc2ccc(OS(=O)(=O)C(F)(F)F)cc2C1	39.8	316	
O=C(/C=C/c1cnc2ccccc2c1)NCCCCN1CCc2ccc(OS(=O)(=O)C(F)(F)F)cc2C1	3.98	316	
Cn1c(=O)ccc2cc(/C=C/C(=O)NCCCCN3CCc4ccc(OS(=O)(=O)C(F)(F)F)cc4C3)ccc21	10	316	
O=C(/C=C/c1c[nH]c2ccccc12)NCCCCN1CCc2ccc(OS(=O)(=O)C(F)(F)F)cc2C1	3.98	631	pKb (D(3) dopamine receptor [4]): 8.9; clearance [5]: 27 mL/min/kg; half-life [6]: 2.5 h; pKb (D(2) dopamine receptor [7]): 6.6
Cc1ccccc1-c1ccc(C(=O)NCCCCN2CCc3ccc(OS(=O)(=O)C(F)(F)F)cc3C2)cc1	50.1	1580	
CNC(=O)c1cccc(-c2ccc(C(=O)NCCCCN3CCc4ccc(OS(=O)(=O)C(F)(F)F)cc4C3)cc2)c1	2	126	
CCCN(CCCCNC(=O)c1ccc(-c2ccccc2)cc1)C1CCc2c(Cl)cccc2C1 (stereo unspecified)			clearance [3]: 80 mL/min/kg
O=C(/C=C/c1ccc2ncccc2c1)NCCCCN1CCc2ccc(OS(=O)(=O)C(F)(F)F)cc2C1	3.16	251	
CC(=O)c1ccc(-c2ccc(C(=O)NCCCCN3CCc4ccc(OS(=O)(=O)C(F)(F)F)cc4C3)cc2)cc1	2.51	200	
Cc1nnc(-c2ccc(-c3ccc(C(=O)NCCCCN4CCc5ccc(OS(=O)(=O)C(F)(F)F)cc5C4)cc3)cc2)o1	2	100	
